The supplement of paper PMC10307832

Experiments:
Assay in all cases: relative viability (nuclei count vs DMSO), 5 days (fraction); higher = more cells survive
BAY61-3606 + Olaparib = compound: COC1=C(C=C(C=C1)C2=CC3=NC=CN3C(=N2)NC4=C(C=CC=N4)C(=O)N)OC [BAY61-3606] + O=C(c1cc(Cc2n[nH]c(=O)c3ccccc23)ccc1F)N1CCN(C(=O)C2CC2)CC1 [Olaparib] (partner 8 µM)
In short: (§1)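 Lung cancer cell lines were pin-tool dosed in 1536-well plates on the day after seeding, with either a lone drug or a fixed anchor-drug dose plus five library-drug doses (not always all listed) in √10 steps. Nuclei were counted on 4× images after 5 days. Relative viability is the ratio of treated-well to vehicle-well nuclei counts, with each value a median of duplicate plates.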

Doxorubicin + Linsitinib = compound: COc1cccc2c1C(=O)c1c(O)c3c(c(O)c1C2=O)C[C@@](O)(C(=O)CO)C[C@@H]3O[C@H]1C[C@H](N)[C@H](O)[C@H](C)O1 [Doxorubicin] + C[C@]1(O)C[C@@H](c2nc(-c3ccc4ccc(-c5ccccc5)nc4c3)c3c(N)nccn32)C1 [Linsitinib] (partner 1 µM)
In short: as §1

Doxorubicin + Bortezomib = compound: COc1cccc2c1C(=O)c1c(O)c3c(c(O)c1C2=O)C[C@@](O)(C(=O)CO)C[C@@H]3O[C@H]1C[C@H](N)[C@H](O)[C@H](C)O1 [Doxorubicin] + CC(C)C[C@H](NC(=O)[C@H](Cc1ccccc1)NC(=O)c1cnccn1)B(O)O [Bortezomib] (partner 0.002 µM)
In short: as §1

BAY61-3606 + Alpelisib = compound: COC1=C(C=C(C=C1)C2=CC3=NC=CN3C(=N2)NC4=C(C=CC=N4)C(=O)N)OC [BAY61-3606] + Cc1nc(NC(=O)N2CCC[C@H]2C(N)=O)sc1-c1ccnc(C(C)(C)C(F)(F)F)c1 [Alpelisib] (partner 2 µM)
In short: as §1

| Cell Line | relative viability (BAY61-3606 + Olaparib; first compound 0.02 µM) | relative viability (BAY61-3606 + Olaparib; first compound 0.06325 µM) | relative viability (BAY61-3606 + Olaparib; first compound 0.2 µM) | relative viability (BAY61-3606 + Olaparib; first compound 0.6325 µM) | relative viability (BAY61-3606 + Olaparib; first compound 2 µM) | relative viability (Doxorubicin + Linsitinib; first compound 0.001 µM) | relative viability (Doxorubicin + Linsitinib; first compound 0.003162 µM) | relative viability (Doxorubicin + Linsitinib; first compound 0.01 µM) | relative viability (Doxorubicin + Linsitinib; first compound 0.03162 µM) | relative viability (Doxorubicin + Linsitinib; first compound 0.1 µM) | relative viability (Doxorubicin + Bortezomib; first compound 0.001 µM) | relative viability (Doxorubicin + Bortezomib; first compound 0.003162 µM) | relative viability (Doxorubicin + Bortezomib; first compound 0.01 µM) | relative viability (Doxorubicin + Bortezomib; first compound 0.03162 µM) | relative viability (Doxorubicin + Bortezomib; first compound 0.1 µM) | relative viability (BAY61-3606 + Alpelisib; first compound 0.02 µM) | relative viability (BAY61-3606 + Alpelisib; first compound 0.06325 µM) | relative viability (BAY61-3606 + Alpelisib; first compound 0.2 µM) | relative viability (BAY61-3606 + Alpelisib; first compound 0.6325 µM) | relative viability (BAY61-3606 + Alpelisib; first compound 2 µM) |
| --- | --- | --- | --- | --- | --- | --- | --- | --- | --- | --- | --- | --- | --- | --- | --- | --- | --- | --- | --- | --- |
| HCC-78 | 0.744 | 0.891 | 0.845 | 0.966 | 0.838 | 0.539 | 0.454 | 0.493 | 0.491 | 0.47 | 0.322 | 0.532 | 0.419 | 0.392 | 0.562 | 0.405 | 0.366 | 0.453 | 0.362 | 0.358 |
| HOP-62 | 0.476 | 0.569 | 0.279 | 0.505 | 0.376 | 0.954 | 1.04 | 1.11 | 1.17 | 1.04 | 0.779 | 0.864 | 0.657 | 0.767 | 0.632 | 0.901 |  | 0.874 | 0.947 | 0.64 |
| NCI-H3122 | 0.607 | 0.652 | 0.676 | 0.636 | 0.57 | 1.05 | 0.995 | 1.06 | 1.06 | 1 | 1.04 | 0.97 | 1.02 | 1.01 | 0.957 | 0.797 | 0.879 | 0.868 | 0.833 | 0.69 |
| NCI-H1666 | 0.767 | 0.827 | 0.748 | 0.754 | 0.724 | 0.803 | 0.762 | 0.561 | 0.268 | 0.285 | 0.833 | 0.559 | 0.476 | 0.302 | 0.272 | 0.903 |  | 0.981 | 0.993 | 0.956 |
| HARA | 1.02 | 0.929 | 1.06 | 0.845 | 0.619 | 0.974 | 1.03 | 0.922 | 0.798 | 1.04 | 1.1 | 0.993 | 1.11 | 1.08 | 1 | 0.867 | 0.88 | 0.877 | 0.83 | 0.561 |
| NCI-H1651 | 0.195 | 0.198 | 0.184 | 0.182 | 0.145 | 0.838 | 0.944 | 0.831 | 0.401 | 0.292 | 0.987 | 0.958 | 0.869 | 0.842 | 0.902 | 0.991 | 0.964 | 0.938 | 0.967 | 0.738 |
| NCI-H1395 | 0.485 | 0.426 | 0.467 | 0.492 | 0.438 | 1.03 | 1.09 | 1.02 | 1.11 | 0.92 |  |  |  |  |  | 1.16 | 0.957 | 1.07 | 1.04 | 0.97 |
| SK-LU-1 | 0.599 | 0.458 | 0.646 | 0.429 | 0.355 | 1.1 | 1.23 | 0.891 | 0.435 | 0.43 |  | 1.19 | 1.25 | 0.945 | 0.671 | 1.37 | 0.951 | 1.04 | 0.844 | 0.421 |
